The values that follow come from ChEMBL document CHEMBL5728227, “Substituted pyrazole derivatives as selective CDK12/13 inhibitors” (2021).

The target of the test is Cyclin-dependent kinase 7 (Homo sapiens, UniProt P50613). Kind of test: Biochemical Assay for CDK7: The inhibitory activity of the test compounds was assessed by the LANCE TR-FRET assay, which detects the ATP-dependent phosphorylation of an ULight-myelin basic protein (MBP) substrate peptide (100 nM) by CDK7 (10 nM). Briefly, the enzyme reaction was run in reaction buffer (20 mM HEPES (pH 7.5), 10 mM MgCl2, 0.01% Triton x, 100 μM Sodium Orthovanadate, 1 mM DTT). The assay was performed in 384-well plate. The end concentration of the ATP substrate was 1 mM/100 μM, and that of the ULight-MBP substrate peptide was 100 nM, and of CDK7 was 10 nM. Pre-incubation of the compound and enzyme was performed for 60 min at room temperature. After 60 min incubation at room temperature, the reaction was terminated by the addition of 40 mM EDTA and 1 nM Eu-labeled anti-phospho-MBP-binding protein antibody in the buffer. Time-resolved fluorescence (excitation, 320 nm; emission donor, 615 nm; emission acceptor, 665 nm) was monitored by using 2030 multilabel reader Victor5 (PerkinElmer). The readout was calculated as (acceptor counts/donor counts)×1000. The IC50 values were derived by fitting a sigmoidal dose-response curve to a plot of assay readout over inhibitor concentration. All fits were computed with the program Prism 5.03 (Graph Pad Software, San Diego, Calif.).
Sequence of Cyclin-dependent kinase 7 (P50613 whole entry): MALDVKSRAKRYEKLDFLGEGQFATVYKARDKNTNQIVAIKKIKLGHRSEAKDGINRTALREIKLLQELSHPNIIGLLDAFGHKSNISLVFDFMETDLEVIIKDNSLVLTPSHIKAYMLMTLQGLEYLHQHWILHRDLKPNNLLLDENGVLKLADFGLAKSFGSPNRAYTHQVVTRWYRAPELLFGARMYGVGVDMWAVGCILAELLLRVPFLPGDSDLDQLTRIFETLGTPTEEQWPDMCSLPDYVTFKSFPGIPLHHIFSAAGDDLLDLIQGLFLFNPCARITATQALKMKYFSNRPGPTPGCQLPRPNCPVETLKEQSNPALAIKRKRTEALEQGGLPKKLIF

On to `C=CC(=O)N1CCC=C(c2ccc(CC(=O)Nc3cc(C4CC4)[nH]n3)cn2)C1`, for which the IC50 was 1730 nM.

In general, IC50 refers to the concentration needed to halve the response being measured.
